Assay results: article PMC11464777, “Approved drugs successfully repurposed against Leishmania based on machine learning predictions” (Frontiers in Cellular and Infection Microbiology, 2024)
Values after ≈ are worked out from the molar mass of the structure shown. Like-named read-outs stand apart in the source and are kept apart here.

Legend:
[1] = system: L. major Empa-12 intracellular amastigotes; assay: Anti-amastigote assay in THP-1-derived macrophages, L. major Empa-12; type: cell-based, Leishmania major; details: for Selectivity Index (SI): CC50 THP-1 / IC50 amastigotes Empa-12, 72 h; for IC50: Leishmania major, Macrophage, Empa-12, intramacrophage, 72 h
Description: (§1) THP-1-derived macrophages (5 × 10^4/well) were seeded in each 8-well Labtek slides (Thermo Scientific). Adherent macrophages were obtained as described above, then infected with stationary phase promastigotes of each strain at a ratio 10:1 (10 parasites/macrophage) in RPMI medium containing penicillin (100 U/mL) and streptomycin (100 μg/mL) with 10% fetal bovine serum (Gibco, Brazil) at 37°C in 5% CO2 for 24 h. […] Non-infected control cells were incubated in a supplemented RPMI medium containing 1% DMSO. After 72h of incubation, cells were fixed and stained using May-Grunwald-Giemsa staining with RAL 555 Kit (RAL DIAGNOSTICS, France), following the manufacturer’s instructions. The percentage of infected cells and the total number of internalized parasites per 100 macrophages were determined under immersion oil (magnification of 1000X) using light microscopy. The percentage of amastigotes viability was expressed as the percentage of total number of internalized parasites within treated cells relative to the total number of internalized parasites within control cells treated with 1% DMSO, and calculated as follows:
(§2) Relative amastigote viability (%) = [(number of amastigotes/100 treated cells)/(number of amastigotes/100 treated cells with1% DMSO)] * 100
(§3) The relative percentage of amastigote viability was evaluated to calculate half inhibitory concentrations (IC50). The mean IC50 values were determined by plotting the curves of the logarithm of compound concentrations versus the relative amastigote viability of three independent experiments performed in two technical replicates for each compound fitted into a nonlinear regression model, using GraphPad Prism version 8.0.1. Selectivity Index (SI) values were calculated as the ratio between cytotoxicity and activity against amastigotes and determined for each compound as follows: SI= CC50/IC50.

[2] = system: L. major Empa-12 promastigotes; assay: MTT-based promastigote viability assay, L. major Empa-12; type: cell-based; details: Leishmania major
Text: (§4) Three Tunisian laboratory strains already described ([Oualha et al., 2019]), originally isolated from distinct clinical manifestations were used in this study: (i) L. infantum LV50 MHOM/TN/94/LV50) strain originating from a bone marrow of a visceral leishmaniasis patient, (ii) L. infantum Drep-14 (MHOM/TN/96/Drep-14) strain isolated from a lesion of a sporadic cutaneous leishmaniasis patient and (iii) L. major Empa-12 (MHOM/TN/2012/Empa-12) strain isolated from a zoonotic cutaneous leishmaniasis patient. Stocks of these parasites obtained after passage through BALB/c mice were used as previously described ([Oualha et al., 2019]). Thawed cryopreserved parasites were cultured at 22°C in RPMI-1640/Glutamax medium (Gibco BRL, Germany) containing penicillin (100 U/mL) and streptomycin (100 μg/mL) supplemented with 10% heat-inactivated Fetal Bovine Serum (FBS) (Gibco BRL, Germany).
(§5) The effect of the selected compounds on the viability of Leishmania promastigotes was evaluated by a colorimetric MTT (3-(4,5-dimethylthiazol-2yl)-2,5-diphenyl tetrazolium bromide) assay. It consists in the reduction of tetrazolium salt to a […] crystal (blue formazan) by the succinate dehydrogenase activity of mitochondria in living cells, which can be quantified by spectrophotometry. Briefly, 90 μL of promastigotes (5 × 10^5 parasites/well) harvested from the stationary growth phase of each strain were added to a 96-well culture plate and incubated with 10 μL of a range of serial dilutions of the selected compounds in technical replicates (final concentration of 1% DMSO per well) ([Ioset et al., 2009]; [Harigua-Souiai et al., 2018]). […] After 72h of incubation at 22°C, 25 μl of MTT solution (5 mg/mL) was added to each well and incubated at 22°C for 4h. Then, 150 μl of DMSO was added to each well to dissolve the blue formazan and the optical density (OD) was measured at 570 nm with a microplate reader ([…], Labsystems). Promastigotes incubated in complete medium containing 1% DMSO were used as negative control. The standard anti-Leishmania drug, Amphotericin B was used as a positive control. All experiments were performed in two technical replicates and repeated three times in independent experiments. The mean percentage of promastigotes viability was calculated from the Optical Density at 570 nm as follows:
(§6) Promastigote viability (%)= [(ODcompound− ODblank)/(ODnegative control −ODblank)]*100
(§7) Results were expressed as the mean value of the percentage of promastigotes viability ± standard deviation (SD).

[3] = system: L. infantum LV50 intracellular amastigotes; assay: Anti-amastigote assay in THP-1-derived macrophages, L. infantum LV50; type: cell-based, Leishmania infantum; details: for Selectivity Index (SI): CC50 THP-1 / IC50 amastigotes LV50, 72 h; for IC50: Leishmania infantum, Macrophage, LV50, intramacrophage, 72 h
Description: as §1, §2, §3

[4] = system: THP-1-derived macrophages; assay: Cytotoxicity assay towards THP-1-derived macrophages (MTT); type: cell-based, human; details: for Cytotoxicity on THP-1-derived macrophages: 24, 48, 72 h
Description: (§8) Louis, MO, USA). The PMA-treated THP-1 cells were maintained in this condition for 24 h, followed by a 24 h of rest period after the removal of PMA. […] The cytotoxicity towards THP-1-derived macrophages was assessed after 24, 48 and 72 hours of incubation by MTT assay as described above. […] The percentage of viable cells was calculated from the Optical Density at 570 nm as follows: […]

[5] = as above; type: cell-based, human; details: human, THP-1-derived macrophages (PMA-differentiated); for CC50 at 72 h: 72 h of treatment, uninfected cells, MTT; for viability at 72 h, 200 µg/mL: at 200 µg/mL
Description: as §8

[6] = system: L. infantum Drep-14 intracellular amastigotes; assay: Anti-amastigote assay in THP-1-derived macrophages, L. infantum Drep-14; type: cell-based, Leishmania infantum; details: for Selectivity Index (SI): CC50 THP-1 / IC50 amastigotes Drep-14, 72 h; for IC50: Leishmania infantum, Macrophage, Drep-14, intramacrophage, 72 h
Description: as §1, §2, §3

[7] = system: L. major and L. infantum amastigotes; assay: Anti-amastigote assay, stated across the three strains; type: cell-based, Leishmania infantum, Leishmania major
Description: as §1, §2, §3

[8] = system: L. infantum (LV50 and Drep-14) and L. major (Empa-12) promastigotes; assay: MTT promastigote viability assay, stated across the three strains; type: cell-based, Leishmania infantum, Leishmania major; details: 72 h; for IC50: Leishmania infantum, LV50, Drep-14, Empa-12, MTT, read-out: Promastigotes IC50, span over the three strains; for Effect on promastigote viability: three strains, at the tested concentrations
Text: as §4, §5, §6, §7

[9] = system: L. infantum Drep-14 promastigotes; assay: microbe, parasite or virus in culture; type: cell-based; details: Leishmania infantum
Text: as §4, §5, §6, §7

[10] = system: L. infantum LV50 promastigotes; assay: MTT-based promastigote viability assay, L. infantum LV50; type: cell-based; details: Leishmania infantum
Text: as §4, §5, §6, §7

[11] = read-out: Amastigotes IC50 (in brackets) (converted)
[12] = Empa-12, 72 h, MTT, read-out: Promastigotes IC50
[13] = Empa-12, 72 h, MTT, read-out: Promastigotes IC50 (in brackets) (converted)
[14] = read-out: THP-1-derived macrophages CC50
[15] = read-out: THP-1-derived macrophages CC50 (in brackets) (converted)
[16] = 72 h, LV50, Drep-14, Empa-12; intramacrophage, 72 h; read-out: Amastigotes IC50, span over the three strains
[17] = 72 h, read-out: Promastigotes IC50
[18] = 72 h, read-out: Promastigotes IC50 (in brackets)
[19] = LV50, 72 h, MTT, read-out: Promastigotes IC50
[20] = LV50, 72 h, MTT, read-out: Promastigotes IC50 (in brackets) (converted)

SMILES | Selectivity Index (SI) [1] | IC50 ([1]; read-out: Amastigotes IC50) | IC50 [1, 11] | IC50 [2, 12] | IC50 [2, 13] | Selectivity Index (SI) [3] | IC50 ([3]; read-out: Amastigotes IC50) | IC50 [3, 11] | Cytotoxicity on THP-1-derived macrophages [4] | CC50 at 72 h [5, 14] | CC50 at 72 h [5, 15] | viability at 72 h, 200 µg/mL ([5]; read-out: Macrophage viability) | Selectivity Index (SI) [6] | IC50 ([6]; read-out: Amastigotes IC50) | IC50 [6, 11] | IC50 [8] | IC50 [9, 17] | IC50 [9, 18] | IC50 [10, 19] | IC50 [10, 20] | further results
CCCC(=O)Nc1ccc(OCC(O)CNC(C)C)c(C(C)=O)c1 (stereo not drawn) [Acebutolol] | > 8.98 | 22.3 ± 1.59 µg/mL | 59.8 µM | 103 ± 10.9 µg/mL | 276 µM | > 12.73 | 15.7 ± 2.75 µg/mL | 42.1 µM | no significant cytotoxicity | > 200 µg/mL | > 536 µM | 90 to 100% | > 14.45 | 13.8 ± 1.41 µg/mL | 37.1 µM | 69.3 to 146 µg/mL (≈ 206 to 433 µM) | 69.3 ± 5.7 µg/mL | 186 µM | 146 ± 16.4 µg/mL | 390 µM | IC50 [7, 16]: 13.8 to 66.8 µg/mL (≈ 41.1 to 199 µM); Effect on promastigote viability [8]: dose-dependent decrease of parasite viability
C[C@@H]1[C@H](O)[C@@H](C)/C=C/C=C/C=C/C=C/C=C/C=C/C=C/[C@H](O[C@@H]2O[C@H](C)[C@@H](O)[C@H](N)[C@@H]2O)C[C@@H]2O[C@](O)(C[C@@H](O)C[C@@H](O)[C@H](O)CC[C@@H](O)C[C@@H](O)CC(=O)O[C@H]1C)C[C@H](O)[C@H]2C(=O)O [Amphotericin B] | > 100.00 | 0.05 ± 0.005 µg/mL | 0.054 µM | 0.2 ± 0.01 µg/mL | 0.22 µM | > 166.66 | 0.03 ± 0.004 µg/mL | 0.032 µM | no cytotoxic effect | > 5 µg/mL | > 5.41 µM | – | > 125.00 | 0.04 ± 0.006 µg/mL | 0.043 µM | 0.15 to 0.2 µg/mL (≈ 0.162 to 0.216 µM) | 0.2 ± 0.004 µg/mL | 0.22 µM | 0.15 ± 0.01 µg/mL | 0.16 µM | IC50 ([7]; LV50, Drep-14, Empa-12; intramacrophage, 72 h; read-out: Amastigotes IC50, span over the three strains): 0.03 to 0.05 µg/mL (≈ 0.0325 to 0.0541 µM)
CNC[C@H](O)c1cccc(O)c1 [Phenylephrine] | > 2.99 | 66.8 ± 7.28 µg/mL | 400 ± 260 µM | > 200 µg/mL | > 1200 µM | > 5.68 | 35.2 ± 4.86 µg/mL | 211 ± 174 µM | no significant cytotoxicity | > 200 µg/mL | > 1200 µM | 90 to 100% | > 4.96 | 40.2 ± 3.15 µg/mL | 241 ± 113 µM | > 200 µg/mL | > 200 µg/mL | > 1200 µM | > 200 µg/mL | > 1200 µM | IC50 ([2]; Empa-12, extrapolated beyond tested range (200 µg/mL), GraphPad, read-out: Promastigotes IC50 estimated through extrapolation): 266 ± 79.5 µg/mL; Effect on promastigote viability [8]: dose-dependent decrease of parasite viability; IC50 ([9]; read-out: Promastigotes IC50 estimated through extrapolation): 275 ± 36.6 µg/mL; IC50 ([10]; LV50, extrapolated beyond tested range (200 µg/mL), GraphPad, read-out: Promastigotes IC50 estimated through extrapolation): 219 ± 25.5 µg/mL
CCCNC(C)C(=O)Nc1ccccc1C (stereo not drawn) [Prilocaine] | > 13.02 | 30.7 ± 2.2 µg/mL | 139 µM | 33.1 ± 2.3 µg/mL | 150 µM | > 15.25 | 26.2 ± 3.14 µg/mL | 119 µM | no significant cytotoxicity | > 200 µg/mL | > 1820 µM | 90 to 100% | > 13.14 | 30.4 ± 2.3 µg/mL | 138 µM | 33.1 to 45.8 µg/mL (≈ 150 to 208 µM) | 34.8 ± 3.22 µg/mL | 158 µM | 45.8 ± 2.46 µg/mL | 208 µM | Concentration at which cytotoxic effects start ([4]; 72 h of incubation): 400 µg/mL; viability ([5]; at the IC50 value on the promastigotes, read-out: Macrophage viability): 90 to 100%; IC50 [7, 16]: 13.8 to 66.8 µg/mL (≈ 62.8 to 303 µM); Effect on promastigote viability [8]: dose-dependent decrease of parasite viability
